Measured values published in patent publication US8642297B2, “Production of L-ribose and other rare sugars” (ZuChem, Inc., priority 2005, dated 2014).

Columns and labels:
Recombinant MDH = biological target: T1, Recombinant MDH (Apium graveolens, UniProt Q38707, C47S/T120I); assay: Relative reaction rates of substrates with recombinantly expressed MDH (NADH formation measured spectrophotometrically); type: biochemical; conditions: relative to D-mannitol = 100%; MDH expressed in E. coli
T1 construct: made in house; host or cells: E. coli BL21 (pTTQ18 plasmid, tac promoter)
T1 sequence (Q38707 whole entry C47S/T120I): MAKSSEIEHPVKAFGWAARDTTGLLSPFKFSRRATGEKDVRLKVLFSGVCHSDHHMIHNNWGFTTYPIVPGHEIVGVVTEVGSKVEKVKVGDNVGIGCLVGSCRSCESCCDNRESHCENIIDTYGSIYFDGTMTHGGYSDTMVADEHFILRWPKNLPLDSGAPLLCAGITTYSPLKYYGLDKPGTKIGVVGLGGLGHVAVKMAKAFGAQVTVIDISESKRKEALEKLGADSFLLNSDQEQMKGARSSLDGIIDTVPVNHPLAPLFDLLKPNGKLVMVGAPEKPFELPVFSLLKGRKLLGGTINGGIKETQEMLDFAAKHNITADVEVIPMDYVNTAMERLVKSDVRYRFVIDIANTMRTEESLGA
Protocol: (§1) Many different variables were studied to maximize the expression and activity of MDH. MDH activity was monitored with the conversion of D-mannitol to D-mannose in the presence of NAD. The conversion was monitored spectrophotometrically by measuring the increasing concentration of NADH, the cofactor product of the oxidation of mannitol to mannose. For a given experiment, lysate protein concentrations were normalized.
Substrate specificity of the recombinant MDH was also tested and compared with the published data on the natively expressed MDH. Recombinant expression of MDH in E. coli could cause subtle modifications to the tertiary structure of MDH and modify the substrate specificity. Several known substrates of the MDH were tested.[16]
The reaction rate of L-fucitol for recombinant MDH was tested. […] The fucitol was not originally characterized in the previous literature on MDH.[38]

Native MDH = biological target: T2, Native MDH (Apium graveolens, UniProt Q38707); conditions: cited from earlier work; for Relative reaction rate, Native MDH: relative to D-mannitol = 100%, natively expressed MDH
T2 construct: compared with the published data on the natively expressed MDH; host or cells: celery (Apium graveolens)
T2 sequence (Q38707 1-365): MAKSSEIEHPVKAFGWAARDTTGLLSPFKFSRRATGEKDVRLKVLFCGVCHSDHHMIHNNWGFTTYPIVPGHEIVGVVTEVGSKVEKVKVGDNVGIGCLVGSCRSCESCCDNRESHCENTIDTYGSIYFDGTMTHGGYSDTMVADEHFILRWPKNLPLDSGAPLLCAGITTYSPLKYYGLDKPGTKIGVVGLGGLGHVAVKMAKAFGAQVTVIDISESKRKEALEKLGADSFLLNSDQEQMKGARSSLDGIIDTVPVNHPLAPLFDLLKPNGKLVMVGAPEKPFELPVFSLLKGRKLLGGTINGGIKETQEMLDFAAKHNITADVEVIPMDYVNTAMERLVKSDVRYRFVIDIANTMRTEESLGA

[1] = biological target: T3, Apium gravelons mannitol-1-dehydrogenase (MDH) (Apium graveolens, UniProt Q38707, C47S/T120I); assay: MDH activity in lysate with added divalent metal salts, D-mannitol and NAD at pH 9.0; type: biochemical
T3 construct: made in house; host or cells: E. coli BL21 (pTTQ18 plasmid, tac promoter)
T3 sequence (Q38707 whole entry C47S/T120I): as the sequence (Q38707 whole entry C47S/T120I) above
Protocol: While not explicitly described in the literature, Apium gravelons mannitol-1-dehydrogenase (MDH) requires divalent metal ions, particularly Zn^2+ ions, for activity. The presence of ZnSO4 increases MDH activity. Cells expressing MDH were grown in rich media were harvested and lysed with BUGBUSTER® protein extraction reagent, Novagen, Madison, Wis. MDH activity was then tested with increasing concentrations of ZnSO4 in the presence of D-mannitol and NAD cofactor at pH 9.0. See, FIG. 1.

[2] = type: biochemical, Apium graveolens
Protocol: as §1
The pH profile for MDH for the oxidation reactions was also tested. […] This range could be beneficial for in vitro bioconversions with enzymatic NAD cofactor recycling methods. Increasing the activity of MDH at neutral pH could improve in vivo fermentation activity as the interior of the E. coli cell has a pH lower than 9.0.[21]
The recombinant MDH was tested for activity at various temperatures. Lysates containing expressed MDH were incubated with D-mannitol and NAD at pH 9.0. Activity was measured by measuring the increased NADH concentration spectrophotometrically at A340nm. […] See, FIG. 12.
The thermostability of recombinant MDH was also tested. Lysates containing MDH were incubated at various temperatures. Aliquots of MDH were removed at various times to measure MDH activity using the assay described above. See, FIG. 13.

| Molecule | Relative reaction rate, Recombinant MDH (Recombinant MDH) | Relative reaction rate, Native MDH (Native MDH) | other results |
| --- | --- | --- | --- |
| OC[C@@H](O)[C@H](O)[C@@H](O)CO [Xylitol] | 1% | 0% | Conversion of xylitol to L-xylose by wild-type MDH (Native MDH; wild-type MDH): does not convert |
| C[C@H](O)[C@@H](O)[C@@H](O)[C@H](O)CO [L-fucitol] | 10.5% |  |  |
| O=S(=O)([O-])[O-].[Ni+2] [NiSO4] |  |  | Inhibition of MDH activity ([1]; 0.1 mM NiSO4 compared to MDH without NiSO4 added): approximately 50% |
| OC[C@@H](O)[C@@H](O)CO [Erythritol] | 4% | 16% |  |
| OC[C@@H](O)[C@@H](O)[C@H](O)[C@H](O)CO [D-Mannitol] | 100% | 100% |  |
| OC[C@@H](O)[C@@H](O)[C@@H](O)CO [Ribitol] | 50% | 36% |  |
| O=S(=O)([O-])[O-].[Zn+2] [Zn^2+, ZnSO4] |  |  | Increase of MDH activity ([1]; 1 μM Zn^2+ ions compared to no added zinc): 50%; Effect on MDH activity at concentrations above 1 μM ([1]; concentrations above 1 μM): inhibition |
| OC[C@@H](O)C(O)[C@H](O)CO [D-Arabitol] | 33% | 37% |  |
| MDH: NAD-dependent mannitol-1-dehydrogenase from Apium graveolens, recombinantly expressed in E. coli |  |  | Thermostability (loss of activity on incubation) [2]: Most MDH activity was lost; Residual activity at pH 7.0 ([2]; pH 7.0, relative to maximum at pH 9.0): 10% |
| OC[C@@H](O)[C@@H](O)[C@H](O)[C@@H](O)CO [D-Sorbitol] | 5% | 22% |  |
